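These data come from cells grown in 96-well plates and exposed to compound for 48 hours at five concentrations. TGI: total growth inhibition.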
Columns and labels:
Assay in all cases: NCI-60 cell line screen, 48 h
[1] = tested on: U251 CNS
[2] = tested on: NCI/ADR-RES ovarian
[3] = tested on: SK-MEL-2 melanoma
[4] = tested on: SNB-75 CNS
[5] = tested on: SF-295 CNS
[6] = tested on: SN12C renal
[7] = tested on: SW-620 colon
[8] = tested on: SF-539 CNS
[9] = tested on: K-562 leukemia
[10] = tested on: SF-268 CNS

## COc1ccc(N=Nc2ccc3oc(=O)c(C(=O)Nc4ccc(OC)cc4)cc3c2)cc1
[1]
  TGI: 30 µM
[2]
  TGI: 51.7 µM
[3]
  TGI: 39.5 µM
[4]
  TGI: 54.3 µM
[5]
  TGI: 51.9 µM
[6]
  TGI: 45.2 µM
[7]
  TGI: 66.1 µM
[8]
  TGI: 22.8 µM
[9]
  TGI: > 100 µM
[10]
  TGI: 48.8 µM

## Clc1ccc(CCn2ccc3ccccc32)c(Cl)c1
[1]
  TGI: > 100 µM
[2]
  TGI: > 100 µM
[3]
  TGI: > 100 µM
[4]
  TGI: > 100 µM
[5]
  TGI: > 100 µM
[6]
  TGI: > 100 µM
[7]
  TGI: > 100 µM
[8]
  TGI: > 100 µM
[9]
  TGI: > 100 µM
[10]
  TGI: > 100 µM

## CC(C)(C)C(=O)C(C#N)C(=O)C(C)(C)C
[1]
  TGI: > 100 µM
[2]
  TGI: > 100 µM
[3]
  TGI: > 100 µM
[4]
  TGI: > 100 µM
[5]
  TGI: > 100 µM
[6]
  TGI: > 100 µM
[7]
  TGI: > 100 µM
[8]
  TGI: > 100 µM
[9]
  TGI: > 100 µM
[10]
  TGI: > 100 µM

## CN(C)CCCNc1ccc2nnn3c4ccc([N+](=O)[O-])cc4c(=O)c1c23
[1]
  TGI: 5.16 µM
[2]
  TGI: 3.09 µM
[3]
  TGI: 15 µM
[4]
  TGI: 8.55 µM
[5]
  TGI: 7.44 µM
[6]
  TGI: 9.5 µM
[7]
  TGI: 12.9 µM
[8]
  TGI: 14.2 µM
[9]
  TGI: 21.9 µM
[10]
  TGI: 12 µM

## CC(C)(C)OC(=O)N1CC(COS(C)(=O)=O)c2ccc(O)cc21 (stereo not given)
[1]
  TGI: 9.69 µM
[2]
  TGI: 4.07 µM
[3]
  TGI: 2.9 µM
[4]
  TGI: 3.05 µM
[5]
  TGI: 10.8 µM
[6]
  TGI: 6.77 µM
[7]
  TGI: 9.57 µM
[8]
  TGI: 3.84 µM
[9]
  TGI: 9.54 µM
[10]
  TGI: 4.33 µM

From PubChem BioAssay (NCI)
